Reference: PubChem BioAssay (NCI)
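Values below derive from 48-hour exposures of cells grown in 96-well plates, with endpoints linearly interpolated between the two concentrations bracketing the appropriate inhibition level. The concentration for full growth arrest is given as TGI.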

Legend:
Test in all cases: NCI-60 cell line screen, 48 h
[1] = test system: 786-0 renal
[2] = test system: A498 renal
[3] = test system: A549 NSCLC
[4] = test system: ACHN renal
[5] = test system: CCRF-CEM leukemia
[6] = test system: COLO 205 colon
[7] = test system: DU-145 prostate
[8] = test system: EKVX NSCLC
[9] = test system: HCT-116 colon
[10] = test system: HCT-15 colon
[11] = test system: HL-60(TB) leukemia
[12] = test system: HOP-62 NSCLC
[13] = test system: HOP-92 NSCLC
[14] = test system: HS 578T breast
[15] = test system: HT29 colon
[16] = test system: IGROV1 ovarian
[17] = test system: K-562 leukemia
[18] = test system: KM12 colon
[19] = test system: LOX IMVI melanoma
[20] = test system: M14 melanoma
[21] = test system: MALME-3M melanoma
[22] = test system: MCF7 breast
[23] = test system: MDA-MB-231 breast
[24] = test system: MDA-MB-435
[25] = test system: MDA-N
[26] = test system: MOLT-4 leukemia
[27] = test system: NCI-H226 lung
[28] = test system: NCI-H23 lung
[29] = test system: NCI-H522 lung
[30] = test system: NCI/ADR-RES ovarian
[31] = test system: OVCAR-3 ovarian
[32] = test system: OVCAR-4 ovarian
[33] = test system: OVCAR-5 ovarian
[34] = test system: OVCAR-8 ovarian
[35] = test system: PC-3 prostate
[36] = test system: RPMI-8226 leukemia
[37] = test system: SF-268 CNS
[38] = test system: SF-295 CNS
[39] = test system: SK-MEL-2 melanoma
[40] = test system: SK-MEL-28 melanoma
[41] = test system: SK-MEL-5 melanoma
[42] = test system: SK-OV-3 ovarian
[43] = test system: SN12C renal
[44] = test system: SNB-19 CNS
[45] = test system: SNB-75 CNS
[46] = test system: SR leukemia
[47] = test system: SW-620 colon
[48] = test system: TK-10 renal
[49] = test system: U251 CNS
[50] = test system: UACC-62 melanoma
[51] = test system: UO-31 renal
[52] = test system: BT-549 breast
[53] = test system: CAKI-1 renal
[54] = test system: HCC-2998 colon
[55] = test system: NCI-H460 lung
[56] = test system: RXF 393 renal
[57] = test system: SF-539 CNS
[58] = test system: UACC-257 melanoma
[59] = test system: T-47D breast

SMILES: NC(N)=NCCCC(NC(=O)c1cccc2c(=O)c3ccccc3[nH]c12)C(=O)O (stereo not given)
- TGI [1]: > 100 µM
- TGI [2]: > 100 µM
- TGI [3]: > 100 µM
- TGI [4]: > 100 µM
- TGI [5]: > 100 µM
- TGI [6]: > 100 µM
- TGI [7]: > 100 µM
- TGI [8]: > 100 µM
- TGI [9]: > 100 µM
- TGI [10]: > 100 µM
- TGI [11]: > 100 µM
- TGI [12]: > 100 µM
- TGI [13]: > 100 µM
- TGI [14]: > 100 µM
- TGI [15]: > 100 µM
- TGI [16]: > 100 µM
- TGI [17]: > 100 µM
- TGI [18]: > 100 µM
- TGI [19]: > 100 µM
- TGI [20]: > 100 µM
- TGI [21]: > 100 µM
- TGI [22]: > 100 µM
- TGI [23]: > 100 µM
- TGI [24]: > 100 µM
- TGI [25]: > 100 µM
- TGI [26]: > 100 µM
- TGI [27]: > 100 µM
- TGI [28]: > 100 µM
- TGI [29]: > 100 µM
- TGI [30]: > 100 µM
- TGI [31]: > 100 µM
- TGI [32]: > 100 µM
- TGI [33]: > 100 µM
- TGI [34]: > 100 µM
- TGI [35]: > 100 µM
- TGI [36]: > 100 µM
- TGI [37]: > 100 µM
- TGI [38]: > 100 µM
- TGI [39]: > 100 µM
- TGI [40]: > 100 µM
- TGI [41]: > 100 µM
- TGI [42]: > 100 µM
- TGI [43]: > 100 µM
- TGI [44]: > 100 µM
- TGI [45]: > 100 µM
- TGI [46]: > 100 µM
- TGI [47]: > 100 µM
- TGI [48]: > 100 µM
- TGI [49]: > 100 µM
- TGI [50]: > 100 µM
- TGI [51]: > 100 µM

SMILES: COC1/C=C/C(C)C(C(C)C(OC)C(C)CCC(=O)C(C)C(C/C=C/N(C)C=O)OC)OC(=O)C=CC2OC2(C)CC(OC)C(OC)C2=CC(=O)O[C@@H](C(C)C(OC)CC(OC)/C=C/C(C)C(O)C1)[C@H]2O (stereo not given in full)
- TGI [1]: 0.0176 µM
- TGI [2]: 0.0259 µM
- TGI [3]: 0.0384 µM
- TGI [4]: 0.016 µM
- TGI [52]: 0.0907 µM
- TGI [53]: 0.0203 µM
- TGI [5]: > 1.24 µM
- TGI [7]: 0.199 µM
- TGI [8]: 0.0163 µM
- TGI [54]: 0.0584 µM
- TGI [9]: 0.00596 µM
- TGI [11]: 0.0785 µM
- TGI [12]: 0.0227 µM
- TGI [13]: 0.0235 µM
- TGI [14]: 0.0351 µM
- TGI [15]: 0.0108 µM
- TGI [16]: 0.00369 µM
- TGI [19]: 0.00617 µM
- TGI [20]: 0.00985 µM
- TGI [21]: 0.854 µM
- TGI [22]: > 0.286 µM
- TGI [23]: 0.0197 µM
- TGI [24]: > 1.24 µM
- TGI [25]: 0.103 µM
- TGI [27]: 0.0164 µM
- TGI [28]: > 0.322 µM
- TGI [55]: > 0.351 µM
- TGI [29]: 0.0296 µM
- TGI [30]: 0.263 µM
- TGI [31]: 0.0341 µM
- TGI [32]: > 1.24 µM
- TGI [33]: 0.0464 µM
- TGI [35]: 0.0297 µM
- TGI [36]: > 1.24 µM
- TGI [56]: 0.0473 µM
- TGI [37]: 0.0186 µM
- TGI [38]: 0.0236 µM
- TGI [57]: 0.00742 µM
- TGI [39]: 0.0446 µM
- TGI [41]: 0.0284 µM
- TGI [42]: 0.0667 µM
- TGI [43]: 0.0342 µM
- TGI [44]: 0.0316 µM
- TGI [48]: 0.0304 µM
- TGI [49]: 0.0416 µM
- TGI [58]: 0.0492 µM
- TGI [50]: 0.0514 µM
- TGI [51]: 0.00831 µM

SMILES: CCC(CCCN)Nc1cc(OC)cc2c(C)ccnc12 (stereo not given)
- TGI [1]: 28.8 µM
- TGI [2]: 34 µM
- TGI [3]: 29.2 µM
- TGI [4]: 32.6 µM
- TGI [52]: 28.5 µM
- TGI [53]: 29.5 µM
- TGI [5]: 52.6 µM
- TGI [6]: 47.5 µM
- TGI [7]: 35.5 µM
- TGI [8]: 36.3 µM
- TGI [54]: 44.9 µM
- TGI [9]: 37.2 µM
- TGI [10]: 58.4 µM
- TGI [11]: 27.7 µM
- TGI [12]: 29.2 µM
- TGI [13]: 30.6 µM
- TGI [14]: 27.6 µM
- TGI [15]: 28.6 µM
- TGI [16]: 36.6 µM
- TGI [17]: 39.5 µM
- TGI [18]: 29 µM
- TGI [19]: 31.6 µM
- TGI [20]: 29.3 µM
- TGI [21]: 50.4 µM
- TGI [22]: 29.3 µM
- TGI [23]: 28.5 µM
- TGI [24]: 28 µM
- TGI [25]: 34.1 µM
- TGI [26]: 40 µM
- TGI [27]: 28.3 µM
- TGI [55]: 32.3 µM
- TGI [30]: 76.4 µM
- TGI [31]: 34.7 µM
- TGI [32]: 39 µM
- TGI [33]: 32.5 µM
- TGI [34]: 42.2 µM
- TGI [35]: 26.2 µM
- TGI [56]: 27 µM
- TGI [37]: 31.6 µM
- TGI [38]: 32.9 µM
- TGI [57]: 33.4 µM
- TGI [39]: 41.5 µM
- TGI [40]: 30.6 µM
- TGI [41]: 31.6 µM
- TGI [42]: 26.4 µM
- TGI [43]: 53.5 µM
- TGI [44]: 27.9 µM
- TGI [45]: 25.3 µM
- TGI [46]: 31.6 µM
- TGI [47]: 36.9 µM
- TGI [48]: 31.7 µM
- TGI [58]: 33.7 µM
- TGI [51]: 25.6 µM

SMILES: COc1c(F)c(F)c(/C(O)=C\c2nc3ccccc3[nH]c2=O)c(F)c1F
- TGI [1]: 5.99 µM
- TGI [3]: > 10 µM
- TGI [53]: > 10 µM
- TGI [5]: > 10 µM
- TGI [6]: > 10 µM
- TGI [7]: > 10 µM
- TGI [8]: > 10 µM
- TGI [54]: > 10 µM
- TGI [10]: > 10 µM
- TGI [11]: > 10 µM
- TGI [12]: > 10 µM
- TGI [13]: > 10 µM
- TGI [15]: > 10 µM
- TGI [16]: > 10 µM
- TGI [17]: > 10 µM
- TGI [18]: > 10 µM
- TGI [19]: 8.34 µM
- TGI [20]: > 10 µM
- TGI [21]: > 10 µM
- TGI [22]: > 10 µM
- TGI [23]: > 10 µM
- TGI [24]: > 10 µM
- TGI [25]: > 10 µM
- TGI [26]: > 10 µM
- TGI [28]: > 10 µM
- TGI [32]: 4.94 µM
- TGI [34]: > 10 µM
- TGI [35]: > 10 µM
- TGI [36]: > 10 µM
- TGI [56]: > 10 µM
- TGI [37]: > 10 µM
- TGI [38]: > 10 µM
- TGI [40]: > 10 µM
- TGI [41]: > 10 µM
- TGI [42]: > 10 µM
- TGI [43]: > 10 µM
- TGI [45]: 6.01 µM
- TGI [46]: > 10 µM
- TGI [47]: > 10 µM
- TGI [59]: > 10 µM
- TGI [48]: > 10 µM
- TGI [58]: > 10 µM
- TGI [50]: > 10 µM
